Source: ChEMBL document CHEMBL1201862, “PubChem BioAssay data set” (2004)
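Protocol summary: plate cells (96-well), add compound at 5 concentrations, incubate 48 h, interpolate endpoints linearly. The concentration for 50% growth inhibition is given as GI50.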 Active and inactive are the calls of the source. No stated cut-off is given here; in the data, active = GI50 up to about 1.1 µM and inactive = higher.

How the values were obtained:
Assay in all cases: NCI-60 cell line screen, 48 h
[1] = tested on: A498
[2] = tested on: ACHN
[3] = tested on: HCT-116
[4] = tested on: HOP-92
[5] = tested on: M14
[6] = tested on: MOLT-4
[7] = tested on: NCI-H460
[8] = tested on: NCI-H522
[9] = tested on: OVCAR-4
[10] = tested on: OVCAR-5
[11] = tested on: RPMI-8226
[12] = tested on: RXF 393
[13] = tested on: SK-MEL-2
[14] = tested on: SK-MEL-5
[15] = tested on: SNB-75
[16] = tested on: UACC-257
[17] = tested on: XF498
[18] = tested on: BT-549
[19] = tested on: NCI/ADR-RES
[20] = tested on: PC-3

Measured: GI50

CCCCOC(=O)CNC(=O)OC/C=C/C#CC#C/C=C/COC(=O)NCC(=O)OCCCC
inactive: [1] > 10 µM | [2] > 10 µM | [3] > 10 µM | [4] > 10 µM | [5] > 10 µM | [6] > 10 µM | [7] > 10 µM | [8] > 10 µM | [9] > 10 µM | [10] > 10 µM | [11] > 10 µM | [12] > 10 µM | [13] > 10 µM | [14] > 10 µM | [15] 27 µM | [16] > 10 µM | [17] > 10 µM

C/C(CCn1[nH]c(=O)ccc1=O)=N\NC(=O)C(N)=O
inactive: [1] > 100 µM | [2] > 100 µM | [3] > 100 µM | [4] > 100 µM | [5] > 100 µM | [7] > 100 µM | [8] > 100 µM | [9] > 100 µM | [10] > 100 µM | [12] > 100 µM | [13] > 100 µM | [14] > 100 µM | [15] > 100 µM | [16] > 100 µM | [17] > 100 µM

Cc1c(Cl)cccc1N1C(=O)C(Cl)=C(Cl)C1=O
inactive: [1] > 100 µM | [2] > 100 µM | [3] > 100 µM | [4] > 73.8 µM | [5] > 100 µM | [6] 17.1 µM | [7] > 100 µM | [8] 13.5 µM | [9] > 100 µM | [10] > 100 µM | [11] 43 µM | [12] 44.4 µM | [13] > 100 µM | [14] > 100 µM | [15] > 100 µM | [16] > 100 µM | [17] 66.7 µM

COc1ccc(/C(C)=N/NC(N)=S)c(OC)c1
inactive: [1] > 100 µM | [2] > 100 µM | [3] > 100 µM | [4] > 100 µM | [5] > 100 µM | [6] > 100 µM | [7] > 100 µM | [8] 18.4 µM | [10] > 100 µM | [11] > 100 µM | [12] > 100 µM | [13] > 100 µM | [14] > 100 µM | [15] > 100 µM | [16] > 100 µM | [17] > 100 µM

CCOC(=O)c1cn(Cc2ccccc2)c(=O)n1Cc1ccccc1
inactive: [1] > 100 µM | [2] > 100 µM | [3] > 100 µM | [4] > 100 µM | [5] > 100 µM | [6] 35 µM | [7] > 100 µM | [8] > 100 µM | [9] > 100 µM | [10] > 100 µM | [11] 40.2 µM | [12] > 100 µM | [13] > 100 µM | [14] > 100 µM | [15] > 100 µM | [16] > 100 µM | [17] 25.8 µM

O=C(O)C1C2CC3CC2CC31 (stereo unspecified)
inactive: [1] > 100 µM | [2] > 100 µM | [3] > 100 µM | [4] > 100 µM | [5] > 100 µM | [6] > 100 µM | [7] > 100 µM | [8] > 100 µM | [9] > 100 µM | [10] > 100 µM | [11] > 100 µM | [12] > 100 µM | [13] > 100 µM | [14] > 100 µM | [15] > 100 µM | [16] > 100 µM | [17] > 100 µM

Clc1ccccc1C1N2CCCCC2[C@@H]2c3[nH]c4ccccc4c3CCN12 (stereo partly specified)
inactive: [1] 13.9 µM | [2] 16.2 µM | [3] 18.5 µM | [4] 41.7 µM | [5] 17.3 µM | [6] 31 µM | [7] 19.4 µM | [9] 19.1 µM | [10] 20.9 µM | [11] 23.8 µM | [12] 22 µM | [13] 16.7 µM | [14] > 10 µM | [15] 32.4 µM | [16] 18.7 µM | [17] 19.4 µM

CC(C)(O)[C@@H]1CC[C@@]2(C)CCCC(O)C2(O)C1 (stereo partly specified)
inactive: [1] > 100 µM | [2] > 100 µM | [3] > 100 µM | [4] > 100 µM | [5] > 100 µM | [6] > 100 µM | [7] > 100 µM | [8] > 100 µM | [9] > 100 µM | [10] > 100 µM | [11] > 100 µM | [13] > 100 µM | [14] > 100 µM | [15] > 100 µM | [16] > 100 µM | [17] > 100 µM

Nc1ccc(S(=O)(=O)Nc2cnc3ccccc3n2)cc1 [SULFAQUINOXALINE]
inactive: [1] > 100 µM | [2] > 100 µM | [18] > 100 µM | [3] > 100 µM | [4] > 100 µM | [5] > 100 µM | [6] > 100 µM | [7] > 100 µM | [8] > 100 µM | [19] > 100 µM | [9] > 100 µM | [10] > 100 µM | [20] > 100 µM | [11] > 100 µM | [12] > 100 µM | [13] > 52.1 µM | [14] > 100 µM | [15] 26.7 µM | [16] > 100 µM | [17] > 100 µM
